Assay results: patent US20240043394A1, “PROTEASOME ENHANCERS AND USES THEREOF” (Board of Trustees of Michigan State University, priority 2020, published 2024)

Legend:
[1] = target: T1, purified human 20S proteasome, T-L site (Homo sapiens, UniProt P25787+P60900); assay: 20S proteasome small peptide assay, Boc-LRR-AMC trypsin-like probe; type: biochemical; details: for AC200 T-L site: concentration needed to double rate vs vehicle
T1 construct: purchased Boston Biochem or Life Sensors E-360 or ps020
Description: (§1) In vitro testing, 20S activation: The 20S proteasome activity of the compounds was assessed by utilizing the standard fluorogenic 7-amino-methylcoumarin (AMC) conjugated small peptide substrates that correspond to each of the catalytic sites in the 20S proteasome: chymotryptic-like site (Suc-LLVY-AMC), caspase-like site (Z-LLE-AMC), and trypsin-like site (Boc-LRR-AMC). When the small peptide substrate is degraded by the 20S proteasome, the AMC fluorophore is released and quantified to measure the rate of proteolytic cleavage. The 20S proteasome activity of the small molecules was evaluated at varying concentrations to determine the concentration at which the rate of proteolysis was doubled (i.e. the concentration needed to induce 200% activity) compared to the vehicle control (hereafter named as AC200). Concentrations ranging from 1.25 μM to 80 μM of each of compound were added to wells that contained 0.5 nM of purified human proteasome.
(§2) The overall enhancement of the rate of proteolysis of the 20S proteasome by a small molecule was first evaluated by adding a combination of all three peptide substrates to the treated sample. The combination of all three substrates represents a more accurate measurement of proteolytic activity of the proteasome because the catalytic sites housed in the β ring of the 20S proteasome communicate through allosteric interactions. For example, when a protein substrate encounters the chymotryptic-like site, a conformational change will occur activating the caspase-like site.^61 The individual contribution of each of the three catalytic sites was subsequently evaluated by adding only the corresponding peptide probes to gain insight into the contribution of each site on the overall enhanced proteolytic activity.
(§3) The fluorescent output, due to release of the AMC fluorophore, was then converted to the fold increase compared to a vehicle control sample, and the AC200 was calculated. […] (Table 1).
(§4) AC200 represents the concentration needed to double (e.g., 200%) the rate of substrate degradation compared to vehicle control. Max fold is the maximum fold rate increase compared to vehicle control.
(§5) 20S Proteasome Small Peptide Assay: Activity assays were carried out in a black flat/clear bottom 96 well plate with a […] volume. Concentrations of the potential activators, varying from 80 μM to 1.25 μM, were added to the well that contained 1 nM 20S proteasome purchased from either Boston Biochem (catalog number E-360) or Life Sensors (catalog number ps020), in a […] buffer at a pH of 7.8. This solution was left to incubate at 37° C. for 15 minutes. For the assay for the overall proteasome activity, 13.33 μM of each small peptide substrate is added. The 96 well plate is then placed into a plate reader (SpectraMax M5e spectrometer) and the plate reader will take a fluorescent reading every 5 minutes for an hour at 37° C. The enzymatic activity of the 20S proteasome is quantified using the fluorescent output at 380-460 nm, which is converted to max fold increase over the untreated sample. The activity of the individual catalytic assays is identical to the assay that assesses the overall activity of the 20S proteasome except only one small peptide substrate is added. To evaluate the activity of the CT-L and the Casp-L sites, 10 μM of the Suc-LLVY-AMC (Boston Biochem S-280) and Z-LLE-AMC (Boston Biochem S-230) were added, respectively. To evaluate the activity of the T-L site, 20 μM of the Boc-LRR-AMC (Boston Biochem S-300) is added.

[2] = target: T2, purified human 20S proteasome (Homo sapiens, UniProt P25787+P60900); assay: 20S proteasome small peptide assay, combination of all three fluorogenic substrates (CT-L/Casp-L/T-L); type: biochemical; details: three probes combined; for AC200 CT-L/Casp-L/T-L: concentration needed to double (200%) the rate of substrate degradation vs vehicle; for Max Fold CT-L/Casp-L/T-L: maximum fold rate increase vs vehicle control
T2 construct: purchased Boston Biochem or Life Sensors E-360 or ps020
Description: as §1, §2, §3, §4, §5

[3] = target: T3, purified human 20S proteasome, CT-L site (Homo sapiens, UniProt P25787+P60900); assay: 20S proteasome small peptide assay, Suc-LLVY-AMC chymotryptic-like probe; type: biochemical; details: for AC200 CT-L site: concentration needed to double rate vs vehicle; for Max Fold CT-L site: maximum fold rate increase vs vehicle
T3 construct: purchased Boston Biochem or Life Sensors E-360 or ps020
Description: as §1, §2, §3, §4, §5

[4] = target: T4, purified human 20S proteasome, Casp-L site (Homo sapiens, UniProt P25787+P60900); assay: 20S proteasome small peptide assay, Z-LLE-AMC caspase-like probe; type: biochemical; details: for AC200 Casp-L site: concentration needed to double rate vs vehicle
T4 construct: purchased Boston Biochem or Life Sensors E-360 or ps020
Description: as §1, §2, §3, §4, §5

26S proteasome = 26S proteasome (Homo sapiens, UniProt P25787+P60900); assay: Fluorogenic small peptide degradation assay with the 26S proteasome (ATP and magnesium chloride added); type: biochemical; details: for 26S proteasome activation, in words: concentration range 0-80 μM
Description: The fluorogenic small peptide degradation assay was conducted again, with the 26S proteasome in place of the 20S proteasome. To ensure that the 26S proteasome remained in its fully assembled complex, ATP and magnesium chloride were added.

[5] = target: T2, purified human 20S proteasome; assay: Digestion of purified α-synuclein by purified 20S proteasome (silver staining); type: biochemical
Description: Quantification of α-synuclein degradation by each compound was done in triplicate. One-way ANOVA statistical analysis was used to determine statistical significance (ns=not significant, *p<0.05, *p<0.01, ***p<0.001, ****p<0.0001).
In vitro testing, IDP degradation: The ability of our small molecules 20S proteasome activators to degrade pathologically relevant IDPs was evaluated in vitro and in cells. […] Then, purified α-synuclein was added and the digestion was incubated at 37° for 6 hours. An SDS loading buffer was added and the samples were boiled to halt α-synuclein degradation. The percentage of remaining α-synuclein was visualized and quantified using silver staining (FIG. 3). Compound 2 was able to increase the rate of degradation of full length α-synuclein. At the highest concentration (5 μM), α-synuclein was reduced up to 33%.
Digestion of purified α-synuclein: Degradation assays were carried out in a 50 μL reaction volume of […] buffer at a pH of 7.8, 0.5 μM of purified α-synuclein, and 7.5 nM purified human 20S proteasome. The 20S proteasome was first diluted to 8.56 nM in the Tris-HCl buffer and 1 μL of the test compounds or DMSO was added. This mixture was incubated for 20 minutes at 37° C. After this incubation, 5 μL of a 5 μM stock of α-synuclein was added. The degradation mixture was incubated at 37° C. for 5 hours. The reaction was stopped with addition of concentrated SDS loading buffer and boiled for 10 minutes. After the samples were boiled, they were resolved on a 4-20% Tris-glycine SDS-PAGE gel and visualized using silver staining.

[6] = system: A53T mutant α-synuclein in Hek-293T cells; assay: In cell degradation of A53T α-synuclein (Western blot); type: cell-based; details: 10 hours
Description: Error bars denote standard deviation. One-way ANOVA statistical analysis was used to determine statistical significance (ns=not significant, *p<0.05, **p<0.01, ***p<0.001, ****p<0.0001) (FIG. 4B).
Cellular efficacy: The A53T mutation of α-synuclein has been linked to early on-set familial Parkinson's disease and appears to oligomerize faster than the wild-type protein. […] Hek-293T cells were transiently transfected with an inducible Tet-One A53T mutant α-synuclein. The cells were treated with 100 ng/mL of doxycycline to induce the production of the A53T mutant. […] The cells were then lysed and the remaining A53T α-synuclein was visualized and quantified via Western Blotting (FIG. 4, n=4).
In cell degradation of A53T α-synuclein: In a 6 well plate, Hek293T cells were grown to 80% confluency and then transfected using Xfect biopolymer transfection system with the Tet-One A53T α-synuclein plasmid. 24 hours post transfection, 100 ng/mL of doxycycline was added to induce A53T α-synuclein expression. After 24 hours of protein induction, media was removed that contained the doxycycline and was washed with PBS. Media with the desired drug concentration or DMSO was added and treated for 10 hours. After the cells were treated with the test compounds or DMSO, the cells were scraped and the pelleted (300 g for 5 minutes). The supernatant was taken off and the cell pellet was washed with ice cold PBS and then lysed with RIPA buffer with added protease inhibitors. The cell lysate was incubated for 20 minutes on ice. The lysate was centrifuged for 15 minutes at 500 g and then the supernatant was collected. Concentrated SDS loading buffer was added and the samples were boiled for 10 minutes. The samples were then resolved on a 4-20% Tris-glycine SDS-PAGE gel and immunoblotted with mouse monoclonal anti α-synuclein IgG (1:2000) and anti-mouse HRP-linked IgG (1:2000). Blots were developed with ECL Westem reagent and imaged with an Azure Biosystems 3000 imager.

[7] = maximum fold rate increase vs vehicle

CN(C)CCCN1c2ccccc2Sc2ccc(Cl)cc21 [CPZ, chlorpromazine, reference compound]
AC200 T-L site [1]: >80 µM
AC200 CT-L/Casp-L/T-L [2]: 13.5 µM
Max Fold CT-L/Casp-L/T-L [2]: ~4 fold
AC200 CT-L site [3]: 7 µM
Max Fold CT-L site [3]: 8 fold
AC200 Casp-L site [4]: >80 µM
26S proteasome activation, maximum fold increase over the vehicle control (26S proteasome; at higher concentrations (range 0-80 μM)): 2 fold
26S proteasome activation, in words (26S proteasome): did not enhance the proteolytic activity of the 26S proteasome

O=C(CCN1c2ccccc2Sc2ccc(Cl)cc21)N(c1ccc(F)cc1)c1ccc(F)cc1 [Compound 19, 3-(2-chloro-10H-phenothiazin-10-yl)-N,N-bis(4-fluorophenyl)propanamide]
AC200 T-L site [1]: 0.3 µM
Max Fold T-L site [1, 7]: 6 fold
AC200 CT-L/Casp-L/T-L [2]: 0.4 µM
Max Fold CT-L/Casp-L/T-L [2]: 11 fold
AC200 CT-L site [3]: 0.7 µM
Max Fold CT-L site [3]: 9.4 fold
AC200 Casp-L site [4]: 1.8 µM
Max Fold Casp-L site [4, 7]: 9.4 fold
26S proteasome activation, in words (26S proteasome): did not display any 26S proteasome activation
depletion of α-synuclein over concentration range, in words ([5]; 0.1 μM to 5 μM): clear dose dependent depletion
decrease of α-synuclein ([5]; 0.5 μM compound, 37° C., 6 hours): 34%
reduction of α-synuclein ([5]; 5 μM compound, 37° C., 6 hours): 57%
reduction of A53T mutant α-synuclein, in words ([6]; 3 μM (lowest concentration)): reduce the concentration of the A53T mutant α-synuclein significantly
decrease of accumulated A53T α-synuclein ([6]; 10 μM, normalized to vehicle): 58%
